{"source": "paper PMC5732773", "about": "“Metabolism, pharmacokinetics, and bioavailability of ZB716, a Steroidal Selective Estrogen Receptor Downregulator (SERD)” (Oncotarget, 2017)", "key": {"[1]": {"test_system": "UGT1A1, -1A3, -1A4, and -1A8", "conditions": "predominant site 3-hydroxyl; cited from earlier work"}, "[2]": {"test": "Metabolism and pharmacokinetics of ZB716 in rat plasma after oral dosing", "protocol": "The same PRM approach was used to identify the metabolites of ZB716 in rat plasma collected at various time points after a single oral dose of 10 mg/kg. […] The pharmacokinetics parameters were calculated using a noncompartment extravascular model (Table 3).\nFemale Sprague-Dawley rats, weighing between 350 and 400 g (Charles River Laboratories, Portage, MI), were used for this study on ZB716. Oral gavages containing ZB716 were formulated in 5% dimethyl sulfoxide (DMSO), 40% polyethylene glycol 400, and 55% saline. Rats were housed in metabolic cages for collection of urine and feces samples after oral administration of ZB716 at a dose of 5 or 10 mg/kg. […] Urine and feces were collected for the durations of 0-1h, 1-3h, 3-6h, 6-8h, 8-24h, 24-48h, 48-72h, 72-96h, and 96-120 h after drug administration. Blood samples were collected from the lateral tail vein of the rats at 5 min, 15 min, 30 min, 1 h, 3 h, 6 h, 8 h, 24 h, and 48 h time points after drug administration. Rat blood was collected with a capillary into 1.5 mL microcentrifuge tubes containing 0.01 mL of 10 % EDTA anticoagulant. Plasma was then separated from cell pellets by centrifugation in a refrigerated centrifuge at 4 °C and transferred to a separate tube. Plasma samples were frozen at -80 °C until analysis.\nPlasma samples (100 μL) were extracted using a modified Folch method for lipid extraction. Internal standard (10 μL 0.5 ng/μL trans-tamoxifen-13C2,15N in methanol), methanol (0.5 mL) and chloroform (1 mL) were added to each plasma sample. The mixtures were stored at −20 °C overnight. Samples were sonicated for 10 min and then centrifuged with a Thermo Scientific Heraeus Megafuge16 centrifuge. The top liquid layer was transferred to another test tube. The bottom residual layer was washed with 0.5 mL of chloroform/methanol (2:1), centrifuged, and the top layer was transferred and combined with the previous top layer. The mixture was dried out with nitrogen at room-temperature and re-suspended in 100 μL of HPLC grade methanol for injection.\n(§1) The Q-Exactive mass spectrometer was coupled to a UHPLC ultimate 3000 (Dionex) using a C-18 column (1.8 μm, 2.1 mm x 50 mm). The gradient started from 30% mobile phase B (acetonitrile with 0.05% formic acid) for 1 min, increased to 100% B in 4.5 min, held for 5 min, then decreased back to 30% B and held for 5 min. Mobile phase A was water with 0.05% formic acid. The flow rate was controlled at 0.3 mL/min. PRM mode was used to obtain the fragment patterns for metabolites with the setting of MS2 resolution of 17500, AGC target of 1e5, maximum IJ of 100 ms, NCE setting of 35. The heated ESI probe setting was set as sheath gas at 30 psi, auxiliary gas at 8 psi, spray voltage at 2500V, capillary temperature at 280°C, S-lens RF level at 50, and auxiliary gas heater temperature at 300°C.\n(§2) Concentrated stock solutions of ZB716 and fulvestrant were prepared at 1 mM in methanol. The stock solution of the internal standard (trans-tamoxifen-13C2,15N) was prepared at 1000 ng/μL in methanol. The above stock solutions were kept at -20°C until use. The working solutions of ZB716 and fulvestrant were prepared at 100 μM in methanol. The working solution of the internal standard trans-tamoxifen-13C2, 15N was prepared at 5 ng/μL and 0.5 ng/ μL in methanol, respectively. Working solutions at various concentrations were prepared by diluting their corresponding stock solution with methanol. Calibration standards quality control solutions were prepared over a range of five orders of magnitude."}, "[3]": {"parameters": "method as in PMID 27529700, PMID 29467940", "conditions": "cited from earlier work"}, "[4]": {"test": "Oxidative metabolism of ZB716 in rat liver microsomes with NADPH", "conditions": "ZB716 with rat liver microsome and NADPH, 1 hour", "protocol": "By incubating ZB716 with rat liver microsome in the presence of NADPH for 1 hour, the cytochrome P450 enzymes in the microsomes were allowed to oxidize ZB716 under aerobic conditions.\nNADPH solution A contains NADP+ and Glucose 6-phosphate. NADPH solution B contains Glucose-6-phosphate dehydrogenase, which is necessary for NADPH regeneration. The pre-incubation solution was prepared by adding 30 μL of potassium phosphate buffer (pH 7.4; 10x), 241.5 μL water, 15μL of NADPH solution A, 3 μL of NADPH solution B, and 7.5 μL rat liver microsomes from Corning Gentest into a 1.5 mL microcentrifuge tube. The mixtures were incubated at 37°C for 5 min in an incubator. Then 3 μL of 10 mM ZB716 was added, mixed, and incubated at 37°C for 60 min in the incubator. After incubation, 300 μL MeOH was added to terminate the reaction. The final mixture was then centrifuged at 10,000×g for 4 min at 4°C. The supernatant was analyzed by UHPLC-HRMS (Thermo Q-Exactive).\nThe Q-Exactive mass spectrometer was coupled to a UHPLC ultimate 3000 (Dionex) using a C-18 column (1.8 μm, 2.1 mm x 50 mm). The gradient started from 30% mobile phase B (acetonitrile with 0.05% formic acid) for 1 min, increased to 100% B in 4.5 min, held for 5 min, then decreased back to 30% B and held for 5 min. Mobile phase A was water with 0.05% formic acid. The flow rate was controlled at 0.3 mL/min. […]"}, "[5]": {"test": "Glucuronidation in liver microsomes with UGT reaction mix (UDPGA)", "conditions": "fulvestrant incubated with liver microsomes and UDPGA", "protocol": "The pre-incubation solution was prepared by adding 205.5 μL water, 24 μL of UGT Reaction Mix solution A, 60μL of UGT Reaction Mix solution B, 7.5 μL rat liver microsomes from Corning Gentest into a 1.5 mL microcentrifuge. The mixtures were incubated at 37°C for 5 min in an incubator. Then 3 μL of 10mM ZB716 was added, mixed, and incubated at 37°C for 60 min in the incubator. After incubation, 300 μL MeOH was added to terminate the reaction. The final mixture was then centrifuged at 10,000× g for 4 min at 4 °C. The supernatant was analyzed by the UHPLC-Q-Exactive instrument.\nas §1"}, "[6]": {"test": "ZB716 and metabolites in rat feces after oral dosing", "conditions": "for share measured in feces after 72 hours: oral ZB716, after 72 h", "protocol": "(§3) Female Sprague-Dawley rats, weighing between 350 and 400 g (Charles River Laboratories, Portage, MI), were used for this study on ZB716. Oral gavages containing ZB716 were formulated in 5% dimethyl sulfoxide (DMSO), 40% polyethylene glycol 400, and 55% saline. Rats were housed in metabolic cages for collection of urine and feces samples after oral administration of ZB716 at a dose of 5 or 10 mg/kg. […] Urine and feces were collected for the durations of 0-1h, 1-3h, 3-6h, 6-8h, 8-24h, 24-48h, 48-72h, 72-96h, and 96-120 h after drug administration.\nThe internal standard of trans-tamoxifen-13C2,15N (0.5 ng/μL in methanol) was added to the feces samples at 10 ng/g feces based on the weight of the feces collected. Feces samples were homogenized with a Power Gen 125 homogenizer (Fisher Scientific) in the mixture of chloroform/methanol (2:1, v:v) and stored at -20 °C overnight. After sonicating for 30 min, the samples were centrifuged with a Heraeus Megafuge16R centrifuge at 3000 RPM. The supernatant was dried with nitrogen gas at room temperature and resuspended with corresponding amount of methanol (200 μL methanol/g feces) for injection on the UHPLC-Q-Exactive instrument.\nas §1\nConcentrated stock solutions of ZB716 and fulvestrant were prepared at 1 mM in methanol. The stock solution of the internal standard (trans-tamoxifen-13C2,15N) was prepared at 1000 ng/μL in methanol."}, "[7]": {"parameters": "method as in PMID 12490735", "conditions": "second line therapy in the metastatic setting; cited from earlier work"}, "[8]": {"test": "Sulfation in rat liver cytosol with PAPS", "protocol": "Sulfate conjugation is enabled by sulfotransferases in the presence of the cofactor 3'-phosphoadenosine-5'-phosphosulfate (PAPS).\nThe pre-incubation solution was prepared by adding 13.5 μL 1 M pH=7.5 Tris-HCl buffer, 247.5 μL water, 6 μL 1 mM 3'-Phosphoadenosine-5'-phosphosulfate (PAPS) from R&D Systems, 30 μL (10 mg/mL) cytosolic protein from Corning Gentest into a 1.5 mL microcentrifuge. The mixtures were incubated at 37°C for 5 min in an incubator. Then 3 μL of 10 mM ZB716 was added, mixed, and incubated at 37°C for 60 min in the incubator. After incubation, 300 μL MeOH was added to terminate the reaction. The final mixture was then -centrifuged at 10,000×g for 4 min at 4 °C. The supernatant was analyzed by the UHPLC-Q-Exactive instrument.\nThe Q-Exactive mass spectrometer was coupled to a UHPLC ultimate 3000 (Dionex) using a C-18 column (1.8 μm, 2.1 mm x 50 mm). The gradient started from 30% mobile phase B (acetonitrile with 0.05% formic acid) for 1 min, increased to 100% B in 4.5 min, held for 5 min, then decreased back to 30% B and held for 5 min. Mobile phase A was water with 0.05% formic acid. The flow rate was controlled at 0.3 mL/min. PRM mode was used to obtain the fragment patterns for metabolites with the setting of MS2 resolution of 17500, AGC target of 1e5, maximum IJ of 100 ms, NCE setting of 35. […]"}, "[9]": {"test": "ZB716 and metabolites in rat urine after oral dosing", "conditions": "for share in urine accounted for in urinary excretion 72 hours after oral dosage: oral ZB716, after 72 h", "description": "Urine samples were subjected to the same HPLC-MS/MS analysis to identify ZB716 and any possible metabolites over a time course post oral administration. […] Again, quantitation was only possible with ZB716 and fulvestrant for which standard calibration curves were established.\nas §3\nUrine samples were thawed at room temperature and vortaxed. 200 μL of the sample was transferred to a 1.5 mL Eppendorf microcentrifuge tube followed by adding 10 μL of the 0.5 ng/μL trans-tamoxifen-13C2,15N in methanol solution and 200 μL methanol. After Vortaxing and centrifuging, the sample was injected into the UHPLC-Q-Exactive instrument for analysis.\nas §1, §2"}, "[10]": {"conditions": "female, Sprague-Dawley, rat, plasma, po, 10 mg/kg"}}, "note": "Where two headings read alike, the source gives them in different places."}
{"smiles": "CC12CCC3c4ccc(O)cc4CC(CCCCCCCCC[S+]([O-])CCCC(F)(F)C(F)(F)F)C3C1CCC2OC1OC(C(=O)O)C(O)C(O)C1O", "note": "(stereo not drawn) [FU-17-glucuronide]", "values": [{"measurement": "share of fulvestrant glucuronidation products", "setting": "[1]", "result": "5-10%"}]}
{"smiles": "C[C@]12CC[C@@H]3c4ccc(O)cc4C[C@@H](CCCCCCCCC[S+]([O-])CCCC(F)(F)C(F)(F)F)[C@H]3[C@@H]1CC[C@@H]2O", "note": "(stereo partly drawn) [Fulvestrant, reference compound]", "values": [{"measurement": "detected in rat plasma", "setting": "[2]; rat plasma after single oral dose of ZB716 10 mg/kg, + detected, - not detected", "result": "identified"}, {"measurement": "peak plasma concentration", "setting": "[3]; animals, similar dosage via s.c. injection", "result": 20, "unit": "ng/mL"}, {"measurement": "oxidative metabolite of ZB716 identified in incubation mixture", "setting": "[4]", "result": "identified"}, {"measurement": "site of glucuronidation", "setting": "[5]", "result": "primarily at 3-OH"}, {"measurement": "detected in rat feces", "setting": "[6]; rat feces after single oral dose of ZB716, + detected, - not detected", "result": "detected"}, {"measurement": "share measured in feces after 72 hours", "setting": "[6]; rat", "result": "Less than 1%"}, {"measurement": "fulvestrant excreted in feces before 72 h", "setting": "[6]; rat, oral ZB716, metabolite fulvestrant, before 72 h", "result": 69.2, "unit": "%"}, {"measurement": "clinical response rate", "setting": "[7]", "result": "below 20%"}, {"measurement": "site of sulfation", "setting": "[8]; fulvestrant incubated with rat liver cytosol", "result": "predominantly at 3-position"}, {"measurement": "detected in rat urine", "setting": "[9]; rat urine after oral administration of ZB716, + detected, - not detected", "result": "detected"}, {"measurement": "share in urine accounted for in urinary excretion 72 hours after oral dosage", "setting": "[9]; rat", "result": "less than 1%"}, {"measurement": "share of all fulvestrant found in urine excreted in the first 48 hours", "setting": "[9]; rat, oral ZB716, metabolite fulvestrant, first 48 h", "result": 97.6, "unit": "%"}]}
{"smiles": "C[C@]12CC[C@@H]3c4ccc(B(O)O)cc4C[C@@H](CCCCCCCCC[S+]([O-])CCCC(F)(F)C(F)(F)F)[C@H]3[C@@H]1CC[C@@H]2O", "note": "(stereo partly drawn) [ZB716]", "values": [{"measurement": "AUC(0-t)", "setting": "[2]; [10]", "result": 1300, "unit": "ng·h/mL"}, {"measurement": "MRT inf", "setting": "[2]; [10]", "result": 18.4, "unit": "h"}, {"measurement": "Tmax", "setting": "[2]; [10]", "result": 2, "unit": "h"}, {"measurement": "concentration at 1 h", "setting": "[2]; [10]", "result": 130, "unit": "ng/mL"}, {"measurement": "concentration at 4 h", "setting": "[2]; [10]", "result": 87.1, "unit": "ng/mL"}, {"measurement": "concentration at 8 h", "setting": "[2]; [10]", "result": 26.4, "unit": "ng/mL"}, {"measurement": "concentration at 48 h", "setting": "[2]; [10]", "result": 6.91, "unit": "ng/mL"}, {"measurement": "k el", "setting": "[2]; [10]", "result": "1.11e-05", "unit": "s⁻¹"}, {"measurement": "share of ZB716 metabolized to fulvestrant", "setting": "[2]; in vivo, observed in mice (ref 27-28) and again in rats in this study", "result": "10-30%"}, {"measurement": "AUC 0-inf_obs", "setting": "[2]; rat, oral 10 mg/kg", "result": 1451.82, "unit": "ng·h/mL"}, {"measurement": "Cmax", "setting": "[2]; rat, oral 10 mg/kg", "result": 158.12, "unit": "ng/mL"}, {"measurement": "Vz/Fobs (apparent volume of distribution during terminal phase)", "setting": "[2]; rat, oral 10 mg/kg", "result": "13.97 (mg/kg)/(ng/mL)"}, {"measurement": "t1/2", "setting": "[2]; rat, oral 10 mg/kg, noncompartment extravascular model", "result": 17.03, "unit": "h"}, {"measurement": "loss of plasma concentration from 2 h to 4 h", "setting": "[2]; rat, single oral dose 10 mg/kg, within 2 hours after peak", "result": 44.9, "unit": "%"}, {"measurement": "peak plasma concentration", "setting": "[3]; mice and rats, oral administration at 10 mg/kg", "result": "> 100", "unit": "ng/mL"}, {"measurement": "number of direct or indirect oxidative metabolites identified", "setting": "[4]", "result": "eight"}, {"measurement": "share measured in feces after 72 hours", "setting": "[6]; rat", "result": "Less than 1%"}, {"measurement": "share of total ZB716 present in feces excreted in 24 hours", "setting": "[6]; rat, oral, 0-24 h", "result": 80.7, "unit": "%"}, {"measurement": "share of ZB716 in feces excreted between 24 h to 72 h", "setting": "[6]; rat, oral, 24-72 h", "result": 10.2, "unit": "%"}, {"measurement": "number of sulfate conjugation products observed", "setting": "[8]; ZB716 with rat liver cytosol and PAPS", "result": "three"}, {"measurement": "share in urine accounted for in urinary excretion 72 hours after oral dosage", "setting": "[9]; rat", "result": "less than 1%"}, {"measurement": "share of ZB716 in urine excreted between 24 h to 72 h", "setting": "[9]; rat, oral, 24-72 h", "result": 34.4, "unit": "%"}, {"measurement": "share of ZB716 in urine excreted before 24 h", "setting": "[9]; rat, oral, before 24 h", "result": "about 63.7%"}]}
